One experiment has as its system RBL2H3 cells. Kind of experiment: Degranulation assay: β-hexosaminidase release during immune complex mediated degranulation. The note with it: Rattus norvegicus, RBL-2H3; for inhibition at 1 µM: read-out: Degranulation % inhibition at 1 μM; for EC50: read-out: Degranulation EC50. The experiment is classed as cell-based, rat. The method, boiled down:
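RBL2H3 cells sensitized overnight (or 24 h) with anti-DNP rat IgE, pretreated 15 min with compounds in 0.5% DMSO, then challenged with DNP-BSA for 45–60 min. β-Hexosaminidase in supernatant read fluorometrically (Ex 355/Em 460 nm) with β-NAG substrate, 30 min RT; % release/inhibition calculated.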

For experiment [1], the target named is Syk (356-635 amino acids) catalytic domain (Homo sapiens (Human), UniProt P43405). As to the kind of experiment: Inhibition of enzymatic Syk kinase activity (radiometric). The experiment is classed as biochemical. Conditions: read-out: IC50 Syk. In outline:
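Human Syk (356-635) kinase domain (0.035–7.5 ng/reaction) preincubated with compound 30 minutes at room temperature, then reacted with pG4T substrate, 100 μM ATP (stock) and γ-32P-ATP for 10 minutes at 30° C. Reaction stopped with HCl/ATP, spotted on P81 paper, washed and counted by scintillation. Percent inhibition versus no-compound counts.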

Where [2] appears, read: Assay Protocol B (96 well format).
Where [3] appears, read: Assay Protocol A (24 well format).

Read-outs that look alike come from different tables or passages of the source.

As for `N#CCC1CCN(c2nc(Nc3ccc(N4CCN(CCO)CC4)cc3)c3c(=O)[nH]ncc3n2)CC1` [Example 191, 2-(1-(4-((4-(4-(2-hydroxyethyl)piperazin-1-yl)phenyl)amino)-5-oxo-5,6-dihydropyrimido[4,5-d]pyridazin-2-yl)piperidin-4-yl)acetonitrile], in the experiment on RBL2H3 cells (setting [2]), the inhibition at 1 µM was 92% and the concentration for a half-maximal effect (EC50) was 0.021 µM. Further, the IC50 in experiment [1] was less than 0.01 µM.
For the compound `Cl.O=c1[nH]ncc2nc(-c3ccccc3)nc(Nc3ccc(CN4CCNCC4)cc3)c12` [Example 7, 2-phenyl-4-(4-(piperazin-1-ylmethyl)phenylamino)pyrimido[4,5-d]pyridazin-5(6H)-one hydrochloride], in the experiment with RBL2H3 cells (setting [3]), the inhibition at 1 µM was 92% and the half-maximal effective concentration (EC50) was 0.086 µM. For the same compound, the 50% inhibitory concentration (IC50) in experiment [1] is less than 0.05 µM.
As for `O=C(O)CC1CCN(c2ccc(Nc3nc(N4CCCCCC4)nc4cn[nH]c(=O)c34)cn2)CC1` [Example 108, 2-(1-(5-((2-(azepan-1-yl)-5-oxo-5,6-dihydropyrimido[4,5-d]pyridazin-4-yl)amino)pyridin-2-yl)piperidin-4-yl) acetic acid], in the experiment with RBL2H3 cells (setting [2]), the inhibition at 1 µM is 98% and the concentration giving a half-maximal response (EC50) was determined as 0.068 µM. In addition, in experiment [1], the IC50 was less than 0.01 µM.
As for `O=C(O)C1CC12CCN(c1ccc(Nc3nc(-c4ccccc4)nc4cn[nH]c(=O)c34)cc1)CC2` (stereo not drawn) [Example 19, 6-(4-(5-oxo-2-phenyl-5,6-dihydropyrimido[4,5-d]pyridazin-4-ylamino)phenyl)-6-azaspiro[2.5]octane-1-carboxylic acid], in the experiment with RBL2H3 cells (setting [3]), the inhibition at 1 µM was 100% and the half-maximal effective concentration (EC50) came out at 0.019 µM. Also, the 50% inhibitory concentration (IC50) in experiment [1] is less than 0.05 µM.
As to `O=C(O)C1CC12CCN(c1ccc(Nc3nc(N4CCCCCC4)nc4cn[nH]c(=O)c34)cc1)CC2` (stereo not drawn) [Example 62, 6-(4-((2-(azepan-1-yl)-5-oxo-5,6-dihydropyrimido[4,5-d]pyridazin-4-yl)amino)phenyl)-6-azaspiro[2.5]octane-1-carboxylic acid], in the experiment with RBL2H3 cells (setting [2]), the inhibition at 1 µM amounted to 100% and the concentration for a half-maximal effect (EC50) amounted to 0.049 µM. Further, the IC50 in experiment [1] is less than 0.01 µM.
For the compound `O=C(O)C1CCN(c2ccc(Nc3nc(-c4ccccc4)nc4cn[nH]c(=O)c34)cc2)CC1` [Example 13, 1-(4-(5-oxo-2-phenyl-5,6-dihydropyrimido[4,5-d]pyridazin-4-ylamino)phenyl)piperidine-4-carboxylic acid], in the experiment on RBL2H3 cells (setting [3]), the inhibition at 1 µM was 100% and the EC50 was 0.047 µM. Also, the IC50 in experiment [1] is less than 0.05 µM.
As to `N#CCC1CCN(c2nc(Nc3ccc(N4CCC(O)CC4)cc3)c3c(=O)[nH]ncc3n2)CC1` [Example 189, 2-(1-(4-((4-(4-hydroxypiperidin-1-yl)phenyl)amino)-5-oxo-5,6-dihydropyrimido[4,5-d]pyridazin-2-yl)piperidin-4-yl)acetonitrile], in the experiment on RBL2H3 cells (setting [2]), the inhibition at 1 µM amounted to 98% and the EC50 came to 0.014 µM. Besides, in experiment [1], the IC50 was less than 0.01 µM.

For orientation: inhibition means the relative decrease from the control value, in per cent. The EC50 is the concentration that produces a half-maximal response. By IC50 is commonly meant the midpoint of a concentration-inhibition curve.

These data come from patent US10183944B2 (Asana Biosciences, LLC, priority 2011, dated 2019).
